# ChEMBL document CHEMBL3826903, “Extended rhodamine photosensitizers for photodynamic therapy of cancer cells” (Bioorg Med Chem, 2016)
# Experiments:
# [1] = Drug localization in mitochondria of mouse Colon 26 cells assessed as bright detail similarity scores at 0.2 uM incubated for 15 mins in presence of MTG by flow cytometry; format: ADME; conditions: colon 26, 0.25 h
# [2] = Therapeutic index, ratio of LD50 for dark toxicity against mouse Colon 26 cells to EC50 for phototoxicity against mouse Colon 26 cells at 1 Jcm'-2 of irradiation with 660 +/- 2 nm nm light; format: cell-based; conditions: read-out: Ratio LD50/EC50
# [3] = Induction of singlet oxygen assessed as quantum yields for generation of singlet oxygen by luminescence spectroscopy; format: physicochemical
# [4] = system: Colon 26; assay: Phototoxicity against mouse Colon 26 cells assessed as cell survival fraction incubated for 1 hr in dark followed by irradiation with 1 J/cm'-2 light from tunable dye laser at 660 +/- 2 nm measured after 48 hrs by SRB assay; format: functional, cell-based; conditions: Colon 26, light or radiation study
# [5] = system: Colon 26; assay: Dark toxicity against mouse Colon 26 cells assessed as cell survival fraction at 1 uM incubated for 1 hr in dark measured after 48 hrs by SRB assay; format: cell-based; conditions: colon 26, 1 µM
# [6] = Dark toxicity against mouse Colon 26 cells assessed as cell survival fraction incubated for 1 hr in dark measured after 48 hrs by SRB assay; format: cell-based; conditions: read-out: LD50
# [7] = Drug localization in mitochondria of human HUT78 cells assessed as bright detail similarity scores at 0.2 uM incubated for 15 mins in presence of MTG by flow cytometry; format: ADME; conditions: hut78, 0.25 h
# [8] = system: Colon 26; assay: Phototoxicity against mouse Colon 26 cells assessed as cell survival fraction incubated for 1 hr in dark followed by irradiation with 5 J/cm'-2 light from tunable dye laser at 690 +/- 2 nm measured after 48 hrs by SRB assay; format: functional, cell-based; conditions: Colon 26, light or radiation study
# [9] = Therapeutic index, ratio of LD50 for dark toxicity against mouse Colon 26 cells to EC50 for phototoxicity against mouse Colon 26 cells at 10 Jcm'-2 of irradiation with 690 +/- 2 nm light; format: cell-based; conditions: read-out: Ratio LD50/EC50
# [10] = system: Colon 26; assay: Phototoxicity against mouse Colon 26 cells assessed as cell survival fraction incubated for 1 hr in dark followed by irradiation with 10 J/cm'-2 light from tunable dye laser at 690 +/- 2 nm measured after 48 hrs by SRB assay; format: functional, cell-based; conditions: Colon 26, light or radiation study
# [11] = Therapeutic index, ratio of LD50 for dark toxicity against mouse Colon 26 cells to EC50 for phototoxicity against mouse Colon 26 cells at 5 Jcm'-2 of irradiation with 690 +/- 2 nm light; format: cell-based; conditions: read-out: Ratio LD50/EC50
# [12] = system: Colon 26; assay: Phototoxicity against mouse Colon 26 cells assessed as cell survival fraction incubated for 1 hr in dark followed by irradiation with 1 J/cm'-2 light from tunable dye laser at 642 +/- 2 nm measured after 48 hrs by SRB assay; format: functional, cell-based; conditions: Colon 26, light or radiation study
# [13] = system: Colon 26; assay: Phototoxicity against mouse Colon 26 cells assessed as cell survival fraction incubated for 1 hr in dark followed by irradiation with 10 J/cm'-2 light from tunable dye laser at 700 +/- 2 nm measured after 48 hrs by SRB assay; format: functional, cell-based; conditions: Colon 26, light or radiation study
# [14] = Therapeutic index, ratio of LD50 for dark toxicity against mouse Colon 26 cells to EC50 for phototoxicity against mouse Colon 26 cells at 5 Jcm'-2 of irradiation with 700 +/- 2 nm light; format: cell-based; conditions: read-out: Ratio LD50/EC50
# [15] = Therapeutic index, ratio of LD50 for dark toxicity against mouse Colon 26 cells to EC50 for phototoxicity against mouse Colon 26 cells at 10 Jcm'-2 of irradiation with 700 +/- 2 nm light; format: cell-based; conditions: read-out: Ratio LD50/EC50
# [16] = system: Colon 26; assay: Phototoxicity against mouse Colon 26 cells assessed as cell survival fraction incubated for 1 hr in dark followed by irradiation with 5 J/cm'-2 light from tunable dye laser at 700 +/- 2 nm measured after 48 hrs by SRB assay; format: functional, cell-based; conditions: Colon 26, light or radiation study
smiles,measurement,setting,value
CN(C)c1ccc2c(-c3ccccc3)c3ccc4cc(=[N+](C)C)ccc4c3[se]c2c1.F[P-](F)(F)(F)(F)F,Drug uptake,[1],1.38
same,selectivity ratio,[2],> 15
same,Singlet oxygen quantum yield,[3],0.65
same,EC50,[4],64 nM
same,Activity,[5],Non-toxic
same,CC50 at 1 h,[6],> 1000 nM
same,Drug uptake,[7],2.458
CN(C)c1ccc2c(-c3ccccc3)c3cc4ccc(=[N+](C)C)cc4cc3sc2c1.F[P-](F)(F)(F)(F)F,Drug uptake,[1],1.2
same,EC50,[8],140 nM
same,Singlet oxygen quantum yield,[3],< 0.05
same,selectivity ratio,[9],5.1
same,EC50,[10],90 nM
same,selectivity ratio,[11],3.3
same,Activity,[5],Toxic
same,CC50 at 1 h,[6],460 nM
same,Drug uptake,[7],2.153
CN(C)c1ccc2c(-c3ccccc3)c3ccc4cc(=[N+](C)C)ccc4c3sc2c1.F[P-](F)(F)(F)(F)F,Drug uptake,[1],1.77
same,Singlet oxygen quantum yield,[3],0.15
same,EC50,[12],280 nM
same,Activity,[5],Non-toxic
same,Drug uptake,[7],2.82
CN(C)c1ccc2c(-c3ccccc3)c3cc4ccc(=[N+](C)C)cc4cc3[se]c2c1.F[P-](F)(F)(F)(F)F,EC50,[13],180 nM
same,Drug uptake,[1],0.7204
same,selectivity ratio,[14],8.3
same,Singlet oxygen quantum yield,[3],< 0.05
same,selectivity ratio,[15],11
same,Activity,[5],Toxic
same,EC50,[16],240 nM
same,CC50 at 1 h,[6],2000 nM
same,Drug uptake,[7],0.683
